{
  "source": "patent US20150346214A1",
  "about": "“DETECTION OF MEMBRANE PROTEINS” (priority 2012, published 2015)",
  "biological_target": "T1, mechanosensitive channel of large conductance (MscL) (Mycobacterium tuberculosis, UniProt P9WJN5)",
  "T1 sequence (P9WJN5 1-151)": "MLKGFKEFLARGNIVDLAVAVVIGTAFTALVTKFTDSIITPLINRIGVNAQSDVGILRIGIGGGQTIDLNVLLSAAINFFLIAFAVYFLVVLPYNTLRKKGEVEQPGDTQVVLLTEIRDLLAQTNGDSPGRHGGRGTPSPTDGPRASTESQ",
  "test": "Gas-phase (collision-induced) unfolding IM-MS: stabilisation of MscL by bound phospholipid",
  "format": "binding",
  "settings": "+12 charge state, versus apo form",
  "note": "Entries after “also recorded” stand apart in the source; their conditions may differ.",
  "data": [
    {"smiles": "CCCCCCCC/C=C\\CCCCCCCC(=O)OC[C@H](COP(=O)(O)O[C@H]1C(O)C(O)C(O)[C@@H](OP(=O)(O)O)C1O)OC(=O)CCCCCCC/C=C\\CCCCCCCC", "note": "(stereo partly shown) [PI]", "values": [
      {"measurement": "average stabilisation of MscL by bound phospholipid (resistance to gas-phase unfolding)", "result": "large increase in stability when binding multiple lipids, greater than all other phospholipids investigated; also recorded: Major cumulative effects on stability"}
    ]}
  ]
}
